These results are taken from PMC12022975, “NMR^2-Based Drug Discovery Pipeline Presented on the Oncogenic Protein KRAS” (Journal of the American Chemical Society, 2025).

SMILES strings stand for the structures. Like-named read-outs stand apart in the source and are kept apart here.

For assay [1], the target named is T1, KRAS G12V GMP-PNP (Homo sapiens, UniProt P01116, G12V).
T1 construct: His-tag (TEV-cleavable) (cleaved yes); made in house; host or cells: E. coli BL21* DE3
Briefly: STD-NMR screening of the DSI-poised fragment library. The assay is classed as binding. Particulars: STD-NMR hit mark; mixtures of six, 600 μM per ligand, 12 μM KRAS; hit if S/N ratio greater than 5. On the procedure:
The STD-NMR and [^15N,^1H]-HSQC screening of the DSI-poised fragment library was performed on a Bruker Avance III HD 600 MHz spectrometer equipped with a cryoprobe and SampleJet. […] Analysis was performed in TopSpin 4.1 and CcpNMR 3.1.[28]
The DSI-poised fragment library comprises 890 molecules, designed such that analogues are readily accessible on the market and can be quickly synthesized.

The target of assay [2] is T1, KRAS G12V GMP-PNP. Briefly: Ligand-titrated [15N,1H]-HSQC affinity determination (TITAN line shape analysis). The assay is classed as binding. On the procedure:
A detailed summary for each ligand can be found in the Supporting Information. The NMR data were processed with nmrpipe, and the affinity was analyzed with TITAN.[29]
The amide signals of L6, V7, T74, and G75 were analyzed using the line shape analysis software TITAN.[29] Additionally, the chemical shift perturbation binding curve was analyzed.
MHz spectrometer equipped with a cryoprobe and SampleJet.
4, 5, 9: [15N, 1H]-sofastHSQC experiments were done on a Bruker Ascend console NEO 500 MHz with a prodigy probe head
titrated to ~100 µM KRAS.
spectrometer equipped with a cryoprobe.
Table SI1: Summary of all [1H, 1H] - NOESY spectra measured for all compounds which a NMR2
(1H) [MS] (1H) [MS] [MS] TIME [MS] [MHZ] TIME PER NOESY [H]

Where [3] appears, read: TITAN analysis of L6, V7, T74, G75 amide signals, no saturation reached, interpret with caution, read-out: KD.

In the case of `COc1ccc2[nH]cc(CN(C)C)c2c1` [compound 13], on KRAS G12V GMP-PNP [1], the STD entry is “√”.

One may read the Kd as the constant that tells how readily two partners part at equilibrium. For the compound `COc1ccc(C)cc1NC(=O)Nn1cnnc1` [compound 6], the Kd on KRAS G12V GMP-PNP [2] (setting [3]) was determined as 15 mM. Moreover, the STD entry at KRAS G12V GMP-PNP [1] is recorded as “√”.

For `c1coc(CNc2nc3ccccc3[nH]2)c1` [fragment 1, C(c1ccco1)Nc1nc(cccc2)c2[nH]1], on KRAS G12V GMP-PNP [2] (setting [3]), the dissociation constant (Kd) is 1.2 mM. Besides, the STD result on KRAS G12V GMP-PNP [1] is given as “√”.

As for `N=c1sccn1CC(=O)Nc1ccc(F)cc1` [compound 4], the Kd at KRAS G12V GMP-PNP [2] (setting [3]) stood at 10 mM. Further, at KRAS G12V GMP-PNP [1], the STD entry was “√”.

With `Nc1ccc(S(=O)(=O)Nc2ccccc2)cc1` [compound 7], the dissociation constant (Kd) at KRAS G12V GMP-PNP [2] (setting [3]) was determined as 5.9 mM. For the same compound, on KRAS G12V GMP-PNP [1], the STD result is reported as “√”.

Turning to `O=C(O)/C=C/c1c[nH]c2ccccc12` [compound 16], the dissociation constant (Kd) on KRAS G12V GMP-PNP [2] (setting [3]) came to 4.5 mM.

For the compound `Cc1[nH]ncc1CNc1ccccc1F` [fragment 5, Cc1n[nH]cc1CNc(cccc1)c1F], at KRAS G12V GMP-PNP [2] (setting [3]), the dissociation constant Kd was determined as 5.2 mM. The STD result at KRAS G12V GMP-PNP [1] is “√”.

Regarding `CNCc1cnn(-c2ccccc2)c1` [compound 9], the Kd at KRAS G12V GMP-PNP [2] (setting [3]) is 3.3 mM. Besides, the STD result at KRAS G12V GMP-PNP [1] is reported as “√”.

With `O=C(CN1CCCC1)Nc1cccc(Cl)c1` [compound 12], the STD entry on KRAS G12V GMP-PNP [1] is given as “√”.

Consider `Cc1cc2cc[nH]c2cc1C` [compound 14], for which the Kd on KRAS G12V GMP-PNP [2] (setting [3]) amounted to 3.2 mM.

The compound `COc1ccc2sc(N)nc2c1` [compound 10] came in with a dissociation constant Kd on KRAS G12V GMP-PNP [2] of 5.9 mM. In addition, the STD entry on KRAS G12V GMP-PNP [1] is “√”.

With `CS(=O)(=O)Cc1nc2ccccc2[nH]1` [compound 11], the STD result on KRAS G12V GMP-PNP [1] is “√”.
